Where a name gives a salt, the structure may show the parent alone. Read-outs that look alike come from different tables or passages of the source.

For one test, the system named is pERK in MKN1 cells. Briefly: cells. It is filed as cell-based. The conditions noted are these: Homo sapiens.
For test [1], the target named is recombinant human SOS1 polypeptide (amino acids 560-1049) (Homo sapiens (Human), UniProt Q07889). As to the kind of experiment: biochemical. It is filed as binding.
Method: The ability of a compound of Formula (I) to bind to SOS1 was measured using a HTRF displacement assay. […] After a 1-hour incubation at room temperature, the HTRF signal was measured using Clairostar plate reader (BMG Labtech) according to the manufacturer's instructions. Excitation filter EX-TR was used, and emission 1 was detected at 650-610 nm and emission 2 detected at 620-610 nm. The HTRF ratio was calculated using the formula: [emission 1/emission 2]*10000.
Background signals were calculated from well with a 10 μM inhibitor, known to inhibit 100% at that concentration. The background subtracted signals were converted to % binding relative to DMSO controls. Data were analyzed using XLFIT software (IDBS) using a Morrison equation for competitive binding and Ki's were generated compound of Formula (I).
[2] abbreviates: MKN-1, pERK inhibition, In-Cell Western, MKN1 or H358 cells (Table 24 does not say which), 0.5-1 hour incubation.
[3] abbreviates: MKN-1, pERK inhibition, In-Cell Western, MKN1 or H358 cells (Table 24 does not say which), 0.5-1 hour incubation, read-out: IC50.
[4] abbreviates: HTRF displacement, Cy5 labelled tracer, Morrison equation for competitive binding, read-out: Ki, Inhibition of Labeled Tracer Binding to SOS1.
The mark [5] stands for this setting: read-out: Ki, Inhibition of Labeled Tracer Binding to SOS1.

Sequence of recombinant human SOS1 polypeptide (amino acids 560-1049) (Q07889 560-1049): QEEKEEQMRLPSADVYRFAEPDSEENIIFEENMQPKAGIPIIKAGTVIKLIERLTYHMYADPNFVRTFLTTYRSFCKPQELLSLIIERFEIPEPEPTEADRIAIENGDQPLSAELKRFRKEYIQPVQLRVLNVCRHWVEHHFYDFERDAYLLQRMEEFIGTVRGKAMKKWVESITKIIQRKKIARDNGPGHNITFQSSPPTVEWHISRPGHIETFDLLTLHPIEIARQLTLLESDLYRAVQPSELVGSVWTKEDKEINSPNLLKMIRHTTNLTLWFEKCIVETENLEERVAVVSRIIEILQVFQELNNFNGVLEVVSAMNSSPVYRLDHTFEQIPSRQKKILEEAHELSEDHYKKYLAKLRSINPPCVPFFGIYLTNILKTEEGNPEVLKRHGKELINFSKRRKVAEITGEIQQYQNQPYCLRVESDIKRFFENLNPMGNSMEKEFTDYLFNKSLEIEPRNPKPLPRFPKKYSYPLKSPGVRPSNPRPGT

For the molecule `Cc1c([C@@H](C)Nc2nnc(C)c3ccc(N4CCOCC4)cc23)cc(N)cc1C(F)(F)F` [Example 15-2, (R)—N-(1-(5-amino-2-methyl-3-(trifluoromethyl)phenyl)ethyl)-4-methyl-7-morpholinophthalazin-1-amine], in the test on pERK in MKN1 cells (setting [2]), the IC50 (in general, the concentration at which inhibition is half-maximal) amounted to 8 nM. For the same molecule, the Ki – broadly, the equilibrium dissociation constant of an inhibitor or competing ligand from its target – in test [1] is 0.42 nM.

Consider `Cc1nnc(N[C@H](C)c2cc(N)cc(C(F)(F)F)n2)c2cc(N3CCOCC3)ccc12` [Example 16-1, (R)—N-(1-(4-amino-6-(trifluoromethyl)pyridin-2-yl)ethyl)-4-methyl-7-morpholinophthalazin-1-amine], for which, in the test on pERK in MKN1 cells (setting [2]), 245 nM corresponded to half-maximal inhibition (IC50). In test [1], the Ki is 14.4 nM.

For the molecule `Cc1c([C@@H](C)Nc2nnc(C)c3cnc(N4CC5(CCNC5=O)C4)cc23)cccc1C(F)(F)F` [Example 12-32], the IC50 in the test on pERK in MKN1 cells (setting [3]) amounted to 18 nM. The Ki in test [1] (setting [4]) turned out to be 0.97 nM.

Take `Cc1c([C@@H](C)Nc2nnc(C)c3cnc(N4CC5CC(C4)O5)cc23)cccc1C(F)(F)F` [Example 12-2, 7-(6-oxa-3-azabicyclo[3.1.1]heptan-3-yl)-4-methyl-N—((R)-1-(2-methyl-3-(trifluoromethyl)phenyl)ethyl)pyrido[3,4-d]pyridazin-1-amine]: the IC50 with pERK in MKN1 cells (setting [3]) is 9 nM. Moreover, the Ki in test [1] (setting [4]) came to 0.6 nM.

Consider `CNCc1c(F)cccc1-c1ccc([C@@H](C)Nc2nnc(C)c3cnc(N4CCOCC4)cc23)s1` [Example 6-13, (R)-N-(1-(5-(3-fluoro-2-((methylamino)methyl)phenyl)thiophen-2-yl)ethyl)-4-methyl-7-morpholinopyrido[3,4-d]pyridazin-1-amine], for which the IC50 in the test with pERK in MKN1 cells (setting [3]) worked out at 20 nM. In addition, the Ki in test [1] (setting [4]) is 0.29 nM.

Consider `Cc1nnc(N[C@H](C)c2cccc(C(F)(F)F)c2F)c2cc(N3CC(C)(N(C)C)C3)ccc12` [Example 10-78, (R)-7-(3-(dimethylamino)-3-methylazetidin-1-yl)-N-(1-(2-fluoro-3-(trifluoromethyl)phenyl)ethyl)-4-methylphthalazin-1-amine], for which the IC50 in the test with pERK in MKN1 cells (setting [3]) is 114 nM. Further, the Ki in test [1] (setting [4]) is 1.16 nM.

For `Cc1c(C#N)cccc1[C@@H](C)Nc1nnc(C)c2cnc(N3CCN(C(=O)C4CC4)CC3)cc12` [Example 11-6, (R)-3-(1-((7-(4-(cyclopropanecarbonyl)piperazin-1-yl)-4-methylpyrido[3,4-d]pyridazin-1-yl)amino)ethyl)-2-methylbenzonitrile], the IC50 in the test on pERK in MKN1 cells (setting [3]) was found to be 55 nM. In addition, the Ki in test [1] (setting [4]) was 0.42 nM.

For the molecule `Cc1c([C@@H](C)Nc2nnc(C)c3ccc(OC[C@@H]4CCCN4C)cc23)cccc1C(F)(F)F` [Example 10-24, 4-methyl-N-((R)-1-(2-methyl-3-(trifluoromethyl)phenyl)ethyl)-7-(((S)-1-methylpyrrolidin-2-yl)methoxy)phthalazin-1-amine hydrochloride salt], the IC50 in the test on pERK in MKN1 cells (MKN-1) turned out to be 69 nM. For the same molecule, the Ki in test [1] (setting [5]) was determined as 1.34 nM.

For the molecule `CNCc1nnc(N[C@H](C)c2cccc(C(F)(F)F)c2C)c2cc(N3C[C@H]4C[C@@H]3CO4)ncc12` [Example 14-5, 7-((1R,4R)-2-oxa-5-azabicyclo[2.2.1]heptan-5-yl)-N-((R)-1-(2-methyl-3-(trifluoromethyl)phenyl)ethyl)-4-((methylamino)methyl)pyrido[3,4-d]pyridazin-1-amine], in the test on pERK in MKN1 cells (setting [3]), the IC50 worked out at 70 nM. In addition, the inhibition constant Ki in test [1] (setting [4]) came to 2.54 nM.

In the case of `Cc1c(C#N)cccc1[C@@H](C)Nc1nnc(C)c2cnc(N3CC(N(C)C)C3)cc12` [Example 12-54], the IC50 in the test on pERK in MKN1 cells (setting [3]) amounted to 45 nM. For the same molecule, the Ki in test [1] (setting [4]) worked out at 5.37 nM.

In the test with pERK in MKN1 cells (MKN-1), `Cc1c([C@@H](C)Nc2nnc(C)c3ccc(N4CC(N(C)C)C4)cc23)cccc1C(F)(F)F` [Example 10-46, (R)-7-(3-(dimethylamino)azetidin-1-yl)-4-methyl-N-(1-(2-methyl-3-(trifluoromethyl)phenyl)ethyl)phthalazin-1-amine formate salt] displayed an IC50 of 157 nM. Moreover, the Ki in test [1] (setting [5]) amounted to 1.13 nM.

Regarding `Cc1nnc(N[C@H](C)c2cccc(F)c2F)c2cc(N3CC(C)(O)C3)ncc12` [Example 12-56], the IC50 with pERK in MKN1 cells (setting [3]) was 301 nM. In addition, in test [1] (setting [4]), the Ki worked out at 31.1 nM.

The values above are taken from patent publication US11702418B2, “SOS1 inhibitors” (priority 2019, dated 2023).
